How the values were obtained:
Details in all cases: main component drawn
[1] = system: B. subtilis 168; experiment: fitness (endpoint OD595 vs no drug) (fraction); higher = more growth
Procedure, shortened: (§1)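 Fitness compares growth at the stationary-phase transition with the robust mean of no-drug control wells, as a ratio of optical densities. The ratio is capped at 1. Wells of 384-well plates held 30 µl, or 55 µl for S. pneumoniae, inoculated at OD595 0.01. Readings at OD595 every 30 min for 14 h at 37 °C were corrected against the first reading.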

[2] = system: S. aureus Newman; experiment: as above
Procedure, shortened: as §1

[3] = system: B. subtilis 168; experiment: Bliss interaction score (quartile over a dose matrix) (fitness difference); higher = more antagonism (negative = synergy)
Procedure, shortened: (§2)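 The Bliss score is observed minus expected fitness under the product model, reported as quartiles over technical, biological and donor/recipient replicates. Fitness is the OD595 at entry into stationary phase divided by the plate's robust no-drug mean and capped at 1. Single-drug fitness was inferred from combination data.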

[4] = system: S. aureus DSM 20231; experiment: as above
Procedure, shortened: as §2

[5] = system: S. aureus Newman; experiment: as above
Procedure, shortened: as §2

[6] = system: S. pneumoniae D39V; experiment: as above
Procedure, shortened: as §2
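Throughout, for Bliss interaction score (quartile over a dose matrix): first quartile when negative (synergy) and third quartile when positive (antagonism).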

CC[C@H](C)[C@H](N)C1=N[C@H](C(=O)N[C@@H](CC(C)C)C(=O)N[C@H](CCC(=O)O)C(=O)N[C@H](C(=O)N[C@H]2CCCCNC(=O)[C@H](CC(N)=O)NC(=O)[C@@H](CC(=O)O)NC(=O)[C@H](Cc3cnc[nH]3)NC(=O)[C@@H](Cc3ccccc3)NC(=O)[C@H]([C@@H](C)CC)NC(=O)[C@@H](CCCN)NC2=O)[C@@H](C)CC)CS1 [Bacitracin] + CC1=C(C(=O)O)N2C(=O)[C@@H](NC(=O)[C@H](N)c3ccccc3)[C@H]2SC1 [Cephalexin]
fitness
Details	partner 0.125 µg/mL	partner 0.25 µg/mL	partner 0.5 µg/mL	partner 1 µg/mL
[1], first compound 37.5 µg/mL	0.922	0.824	0.838	–
[1], first compound 75 µg/mL	0.884	0.869	0.904	–
[1], first compound 150 µg/mL	0.72	–	–	–
[2], first compound 18.75 µg/mL	–	0.798	0.785	0.791
[2], first compound 75 µg/mL	–	0.0499	0.0405	0.045

[1], partner 1 µg/mL, one replicate
Details	fitness
first compound 37.5 µg/mL	0.874
first compound 75 µg/mL	0.886
first compound 150 µg/mL	0.53

Details	Bliss interaction score
[3]	0.0854
[4]	0.0487
[5]	0.129
[6]	-0.0987

CC[C@H](C)[C@H](N)C1=N[C@H](C(=O)N[C@@H](CC(C)C)C(=O)N[C@H](CCC(=O)O)C(=O)N[C@H](C(=O)N[C@H]2CCCCNC(=O)[C@H](CC(N)=O)NC(=O)[C@@H](CC(=O)O)NC(=O)[C@H](Cc3cnc[nH]3)NC(=O)[C@@H](Cc3ccccc3)NC(=O)[C@H]([C@@H](C)CC)NC(=O)[C@@H](CCCN)NC2=O)[C@@H](C)CC)CS1 [Bacitracin] + CC1=C\[C@@H](O)CC(=O)Cc2nc(co2)C(=O)N2CCC=C2C(=O)O[C@H](C(C)C)[C@H](C)/C=C/C(=O)NC\C=C\1 [Virginiamycin M1]
fitness
Details	partner 0.0625 µg/mL	partner 0.125 µg/mL	partner 0.25 µg/mL
[1], first compound 37.5 µg/mL	0.986	0.926	0.927
[1], first compound 75 µg/mL	0.994	0.861	0.951
[2], first compound 18.75 µg/mL	0.698	0.698	0.705
[2], first compound 37.5 µg/mL	0.146	0.215	0.215
[2], first compound 75 µg/mL	0.037	0.0313	0.0704

fitness, [2], one replicate
Details	first compound 18.75 µg/mL	first compound 37.5 µg/mL	first compound 75 µg/mL
partner 0.5 µg/mL	0.693	0.519	0.0148
partner 1 µg/mL	0.72	0.368	0.0101
partner 2 µg/mL	0.594	0.127	0.0147

Details	Bliss interaction score
[3]	0.0905
[4]	-0.0463
[5]	0.0498
[6]	0.094

CC[C@H](C)[C@H](N)C1=N[C@H](C(=O)N[C@@H](CC(C)C)C(=O)N[C@H](CCC(=O)O)C(=O)N[C@H](C(=O)N[C@H]2CCCCNC(=O)[C@H](CC(N)=O)NC(=O)[C@@H](CC(=O)O)NC(=O)[C@H](Cc3cnc[nH]3)NC(=O)[C@@H](Cc3ccccc3)NC(=O)[C@H]([C@@H](C)CC)NC(=O)[C@@H](CCCN)NC2=O)[C@@H](C)CC)CS1 [Bacitracin] + CC(C1CCC(C(O1)OC2C(CC(C(C2O)OC3C(C(C(CO3)(C)O)NC)O)N)N)N)NC [Gentamicin]
fitness
Details	first compound 18.75 µg/mL	first compound 37.5 µg/mL	first compound 75 µg/mL	first compound 150 µg/mL
[1], partner 0.125 µg/mL	–	–	–	0.0432
[1], partner 0.25 µg/mL	–	0.0865	0.0452	0.0472
[2], partner 0.375 µg/mL	0.591	0.122	0.0738	–
[2], partner 0.5 µg/mL	0.759	0.625	0.0785	–
[2], partner 0.75 µg/mL	0.461	0.137	0.0623	–
[2], partner 1 µg/mL	0.803	–	0.0125	–
[2], partner 1.5 µg/mL	–	0.163	0.0666	–
[2], partner 2 µg/mL	0.842	–	0.0163	–

Details	Bliss interaction score
[3]	-0.298
[4]	-0.0565
[5]	0.102
[6]	-0.149

CC[C@H](C)[C@H](N)C1=N[C@H](C(=O)N[C@@H](CC(C)C)C(=O)N[C@H](CCC(=O)O)C(=O)N[C@H](C(=O)N[C@H]2CCCCNC(=O)[C@H](CC(N)=O)NC(=O)[C@@H](CC(=O)O)NC(=O)[C@H](Cc3cnc[nH]3)NC(=O)[C@@H](Cc3ccccc3)NC(=O)[C@H]([C@@H](C)CC)NC(=O)[C@@H](CCCN)NC2=O)[C@@H](C)CC)CS1 [Bacitracin] + CCC[C@@H]1C[C@@H](C(=O)N[C@@H]([C@H]2O[C@H](SC)[C@H](O)[C@@H](O)[C@H]2O)[C@H](C)Cl)N(C)C1 [Clindamycin]
fitness, [1], one replicate
Details	first compound 37.5 µg/mL	first compound 75 µg/mL	first compound 150 µg/mL
partner 0.0039 µg/mL	0.995	≥ 1	≥ 1
partner 0.0078 µg/mL	0.878	0.891	0.845
partner 0.0156 µg/mL	0.831	0.861	0.871

fitness
Details	first compound 18.75 µg/mL	first compound 37.5 µg/mL	first compound 75 µg/mL	first compound 150 µg/mL
[1], partner 0.0625 µg/mL	–	0.649	0.568	–
[1], partner 0.125 µg/mL	–	0.42	0.364	0.108
[1], partner 0.25 µg/mL	–	0.363	0.241	0.0433
[2], partner 0.0312 µg/mL	–	–	0.0388	–
[2], partner 0.0625 µg/mL	–	0.067	0.0139	–
[2], partner 0.125 µg/mL	0.0166	0.0173	0.0265	–

Details	Bliss interaction score
[3]	-0.0851
[4]	0.0155
[5]	-0.052
[6]	-0.071

CC[C@H](C)[C@H](N)C1=N[C@H](C(=O)N[C@@H](CC(C)C)C(=O)N[C@H](CCC(=O)O)C(=O)N[C@H](C(=O)N[C@H]2CCCCNC(=O)[C@H](CC(N)=O)NC(=O)[C@@H](CC(=O)O)NC(=O)[C@H](Cc3cnc[nH]3)NC(=O)[C@@H](Cc3ccccc3)NC(=O)[C@H]([C@@H](C)CC)NC(=O)[C@@H](CCCN)NC2=O)[C@@H](C)CC)CS1 [Bacitracin] + CCN(CC)CCOC(=O)c1ccc(N)cc1 [Procaine]
fitness
Details	partner 85.5 µg/mL	partner 171 µg/mL	partner 342 µg/mL
[1], first compound 37.5 µg/mL	0.88	0.939	0.874
[1], first compound 75 µg/mL	0.899	0.879	0.871
[1], first compound 150 µg/mL	0.753	0.752	0.619
[2], first compound 18.75 µg/mL	0.792	0.738	0.749
[2], first compound 75 µg/mL	0.0486	0.0139	0.0176

Details	Bliss interaction score
[3]	0.116
[4]	0.0191
[5]	0.0965
[6]	-0.0511

From the supplement of paper PMC10627819
